Test results as given in patent US7015215B2, “Pyrrolo[2,1-c][1,4] benzodiazepines compounds and process thereof” (Council of Scientific and Industrial Research, priority 2003, dated 2006).

What was measured:
Assay type in all cases: cell-based, human
[1] = test system: K-62; assay: NCI SRB cytotoxicity, Leukemia K-62; conditions: K-62, Leukemia, 48 h
Procedure: (§1) Biological Activity: In vitro biological activity studies were carried out at National Cancer Institute (U.S.A.).
(§2) For each compound, dose response curves for each cell line were measured at a minimum of five concentrations at 10 fold dilutions. A protocol of 48 h continuous drug exposure was used, and a sulforhodamine B (SRB) protein assay was used to estimate cell viability or growth. The concentration causing 50% cell growth inhibition (GI50), total cell growth inhibition (TGI, 0% growth) and 50% cell death (LC50, −50% growth) compared with the control was calculated.

[2] = test system: MOLT-4; assay: NCI SRB cytotoxicity, Leukemia MOLT-4; conditions: MOLT-4, Leukemia, 48 h
Procedure: as §1, §2

[3] = test system: SR; assay: NCI SRB cytotoxicity, Leukemia SR; conditions: 48 h
Procedure: as §1, §2

[4] = test system: EKVX; assay: NCI SRB cytotoxicity, Non-small-cell lung EKVX; conditions: 48 h
Procedure: as §1, §2

[5] = test system: HOP-62; assay: NCI SRB cytotoxicity, Non-small-cell lung HOP-62; conditions: HOP-62, Non-small-cell lung, 48 h
Procedure: as §1, §2

[6] = test system: NCI-H23; assay: NCI SRB cytotoxicity, Non-small-cell lung NCI-H23; conditions: 48 h
Procedure: as §1, §2

[7] = test system: NCI-H522; assay: NCI SRB cytotoxicity, Non-small-cell lung NCI-H522; conditions: 48 h
Procedure: as §1, §2

[8] = test system: COLO 205; assay: NCI SRB cytotoxicity, Colon COLO 205; conditions: COLO 205, Colon, 48 h
Procedure: as §1, §2

[9] = test system: HCC-2998; assay: NCI SRB cytotoxicity, Colon HCC-2998; conditions: HCC-2998, Colon, 48 h
Procedure: as §1, §2

[10] = test system: HCT-116; assay: NCI SRB cytotoxicity, Colon HCT-116; conditions: HCT-116, Colon, 48 h
Procedure: as §1, §2

[11] = test system: HT-29; assay: NCI SRB cytotoxicity, Colon HT-29; conditions: HT-29, Colon, 48 h
Procedure: as §1, §2

[12] = test system: KM-12; assay: NCI SRB cytotoxicity, Colon KM-12; conditions: KM-12, Colon, 48 h
Procedure: as §1, §2

[13] = test system: SF-295; assay: NCI SRB cytotoxicity, CNS SF-295; conditions: SF-295, CNS, 48 h
Procedure: as §1, §2

[14] = test system: SNB-75; assay: NCI SRB cytotoxicity, CNS SNB-75; conditions: SNB-75, CNS, 48 h
Procedure: as §1, §2

[15] = test system: U251; assay: NCI SRB cytotoxicity, CNS U251; conditions: 48 h
Procedure: as §1, §2

[16] = test system: SK-MEL-2; assay: NCI SRB cytotoxicity, Melanoma SK-MEL-2; conditions: SK-MEL-2, Melanoma, 48 h
Procedure: as §1, §2

[17] = test system: SK-MEL-28; assay: NCI SRB cytotoxicity, Melanoma SK-MEL-28; conditions: SK-MEL-28, Melanoma, 48 h
Procedure: as §1, §2

[18] = test system: SK-MEL-5; assay: NCI SRB cytotoxicity, Melanoma SK-MEL-5; conditions: SK-MEL-5, Melanoma, 48 h
Procedure: as §1, §2

[19] = test system: UACC-257; assay: NCI SRB cytotoxicity, Melanoma UACC-257; conditions: UACC-257, Melanoma, 48 h
Procedure: as §1, §2

[20] = test system: UACC-62; assay: NCI SRB cytotoxicity, Melanoma UACC-62; conditions: UACC-62, Melanoma, 48 h
Procedure: as §1, §2

[21] = test system: OVCAR-4; assay: NCI SRB cytotoxicity, Ovarian OVCAR-4; conditions: OVCAR-4, Ovarian, 48 h
Procedure: as §1, §2

[22] = test system: OVCAR-5; assay: NCI SRB cytotoxicity, Ovarian OVCAR-5; conditions: OVCAR-5, Ovarian, 48 h
Procedure: as §1, §2

[23] = test system: OVCAR-8; assay: NCI SRB cytotoxicity, Ovarian OVCAR-8; conditions: OVCAR-8, Ovarian, 48 h
Procedure: as §1, §2

[24] = test system: 786-0; assay: NCI SRB cytotoxicity, Renal 786-0; conditions: 786-0, Renal, 48 h
Procedure: as §1, §2

[25] = test system: A498; assay: NCI SRB cytotoxicity, Renal A498; conditions: 48 h
Procedure: as §1, §2

[26] = test system: ACHN; assay: NCI SRB cytotoxicity, Renal ACHN; conditions: 48 h
Procedure: as §1, §2

[27] = test system: CAKI-1; assay: NCI SRB cytotoxicity, Renal CAKI-1; conditions: CAKI-1, Renal, 48 h
Procedure: as §1, §2

[28] = test system: RXF 393; assay: NCI SRB cytotoxicity, Renal RXF 393; conditions: RXF 393, Renal, 48 h
Procedure: as §2

[29] = test system: SN12C; assay: NCI SRB cytotoxicity, Renal SN12C; conditions: 48 h
Procedure: as §1, §2

[30] = test system: TK-10; assay: NCI SRB cytotoxicity, Renal TK-10; conditions: TK-10, Renal, 48 h
Procedure: as §1, §2

[31] = test system: UO-31; assay: NCI SRB cytotoxicity, Renal UO-31; conditions: UO-31, Renal, 48 h
Procedure: as §2

[32] = test system: PC-3; assay: NCI SRB cytotoxicity, Prostate PC-3; conditions: PC-3, Prostate, 48 h
Procedure: as §2

[33] = test system: HS578T; assay: NCI SRB cytotoxicity, Breast HS578T; conditions: 48 h
Procedure: as §1, §2

[34] = test system: MDA-MB-435; assay: NCI SRB cytotoxicity, Breast MDA-MB-435; conditions: MDA-MB-435, Breast, 48 h
Procedure: as §1, §2

[35] = test system: BT-549; assay: NCI SRB cytotoxicity, Breast BT-549; conditions: BT-549, Breast, 48 h
Procedure: as §1, §2

[36] = test system: T-47D; assay: NCI SRB cytotoxicity, Breast T-47D; conditions: 48 h
Procedure: as §1, §2

## COc1cc2c(cc1OCCCCN1CCN(CCCCOc3cc4c(cc3OC)C(=O)N3CCC[C@H]3C=N4)CC1)N=C[C@@H]1CCCN1C2=O [Compound VIc, 1,1′-{[(bisbutane-1,N-diyl)piperazine]dioxy}bis[(11aS)-7-methoxy-1,2,3,11a-tetrahydro-5H-pyrrolo[2,1-c][1,4]benzodiazepin-5-one]]
[1]
  Log GI 50: −7.63 mol/L
  Log LC 50: −4.00 mol/L
[2]
  Log LC 50: −4.00 mol/L
[3]
  Log LC 50: −5.62 mol/L
[4]
  Log GI 50: −6.36 mol/L
  Log LC 50: −4.00 mol/L
[5]
  Log LC 50: −4.00 mol/L
[6]
  Log LC 50: −5.59 mol/L
[7]
  Log LC 50: −4.00 mol/L
[8]
  Log GI 50: −7.99 mol/L
  Log LC 50: −6.26 mol/L
[9]
  Log GI 50: −7.95 mol/L
  Log LC 50: −4.00 mol/L
[10]
  Log GI 50: −6.42 mol/L
  Log LC 50: −4.00 mol/L
[11]
  Log GI 50: −7.89 mol/L
  Log LC 50: −4.00 mol/L
[12]
  Log GI 50: −7.84 mol/L
  Log LC 50: −4.67 mol/L
[13]
  Log LC 50: −4.69 mol/L
[14]
  Log GI 50: −7.94 mol/L
  Log LC 50: −4.00 mol/L
[15]
  Log LC 50: −4.41 mol/L
[16]
  Log GI 50: −7.34 mol/L
  Log LC 50: −4.00 mol/L
[17]
  Log GI 50: −7.69 mol/L
  Log LC 50: −4.00 mol/L
[18]
  Log GI 50: −7.86 mol/L
  Log LC 50: −6.68 mol/L
[19]
  Log GI 50: −7.65 mol/L
[20]
  Log LC 50: −7.35 mol/L
[21]
  Log GI 50: −7.11 mol/L
  Log LC 50: −4.00 mol/L
[22]
  Log GI 50: −7.92 mol/L
  Log LC 50: −4.00 mol/L
[23]
  Log LC 50: −4.00 mol/L
[24]
  Log LC 50: −4.00 mol/L
[25]
  Log GI 50: −6.89 mol/L
[26]
  Log LC 50: −4.00 mol/L
[27]
  Log LC 50: −4.28 mol/L
[28]
  Log GI 50: −7.54 mol/L
  Log LC 50: −4.00 mol/L
[29]
  Log LC 50: −4.00 mol/L
[30]
  Log GI 50: −7.69 mol/L
  Log LC 50: −4.00 mol/L
[31]
  Log GI 50: −6.65 mol/L
  Log LC 50: −4.00 mol/L
[32]
  Log GI 50: −7.02 mol/L
  Log LC 50: −4.00 mol/L
[33]
  Log GI 50: −7.30 mol/L
  Log LC 50: −4.00 mol/L
[34]
  Log GI 50: −7.87 mol/L
  Log LC 50: −7.15 mol/L
[35]
  Log GI 50: −7.68 mol/L
  Log LC 50: −4.00 mol/L
[36]
  Log LC 50: −4.00 mol/L
